Measured values taken from US11453697B1, “Cyclic di-nucleotide compounds as sting agonists” (Merck Sharp & Dohme Corp., priority 2015, dated 2022).
One block for each molecule: values may come before it.

Experiments:
full-length HAQ STING = full-length HAQ STING (Homo sapiens (Human), UniProt Q86WV6, G230A/H232R/R293Q/R71H); test: 3H-cGAMP filtration binding assay (HAQ STING); conditions: competition with tritiated cGAMP, HAQ STING membrane; read-out: EC50 (nM), 3H-cGAMP filtration binding assay for HAQ STING
full-length HAQ STING, sequence (Q86WV6 other isoform, or with tags, fused parts or gaps, stated change not applied): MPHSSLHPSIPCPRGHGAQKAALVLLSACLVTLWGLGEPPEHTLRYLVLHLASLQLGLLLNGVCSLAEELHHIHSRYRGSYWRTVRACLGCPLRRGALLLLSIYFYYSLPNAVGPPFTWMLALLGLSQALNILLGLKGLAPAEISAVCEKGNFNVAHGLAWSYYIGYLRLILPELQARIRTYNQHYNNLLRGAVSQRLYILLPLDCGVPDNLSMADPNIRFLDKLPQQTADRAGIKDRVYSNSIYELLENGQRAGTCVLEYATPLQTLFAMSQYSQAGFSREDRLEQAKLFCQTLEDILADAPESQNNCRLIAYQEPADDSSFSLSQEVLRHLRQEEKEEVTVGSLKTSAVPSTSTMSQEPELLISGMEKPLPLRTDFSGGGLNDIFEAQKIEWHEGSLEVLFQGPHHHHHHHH
Description: The ability of compounds to bind STING is quantified by the ability to compete with tritiated cGAMP ligand for human STING receptor membrane using a radioactive filter-binding assay. The binding assay employs STING receptor obtained from Hi-Five cell membranes overexpressing full-length HAQ STING prepared in-house and tritiated cGAMP ligand also purified in-house.
The ability of compounds to bind STING is quantified by their ability to compete with tritiated cGAMP ligand for human STING receptor membrane using a radioactive filter-binding assay.
The basic HAQ STING filtration assay protocol is as follows:
Compound and membrane then preincubated for 60 min at RT to allow compound binding to equilibrate. Following equilibration, 8 nM of [^3H] c-GAMP ligand was prepared by diluting into assay buffer, and 50 uL of this working stock was then manually added to each well of the assay plate. […] The filter plates were then dried at 55° C. for 30 min using a pressurized VWR oven before 30 uL of Ultima GoldF scintillate was added to each well. Tritium levels for each reaction well were then measured using a PerkinElmer TopCount plate reader.
After normalization to controls, the percent activity for each compound concentration was calculated by measuring the amount of remaining radioactivity. The plot of percent activity versus the log of compound concentration was fit with a 4-parameter dose response equation to calculate EC50 values.

[1] = test system: IFN-β secretion in THP1 cells; test: IFN-β secretion in THP1 cell culture (5 h); format: cell-based, human; conditions: IFN-β secretion in THP1 cell culture, 5 h; compound at 30 μM; percent activation relative to 2′3′-cGAMP
In short: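 THP1 cells incubated with compound for 5 h at 37 °C, 5% CO2, and secreted IFN-β in supernatant quantified by AlphaLISA. Percent effect normalised to 30 uM cGAMP positive control and 0.3% DMSO. EC50 from 4-parameter fit.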

Structure (SMILES): Nc1nc2c(ccn2[C@@H]2O[C@@H]3COP(=O)(O)O[C@H]4[C@@H](O)[C@H](n5cnc6c(N)ncnc65)O[C@@H]4COP(=O)(O)O[C@@H]2[C@@H]3O)c(=O)[nH]1 [Example 30, 2-amino-7-[(5R,7R,8R,12aR,14R,15R,15aS,16R)-14-(6-amino-9H-purin-9-yl)-2,10,15,16-tetrahydroxy-2,10-dioxidooctahydro-12H-5,8-methanofuro[3,2-l][1,3,6,9,11,2,10]pentaoxadiphosphacyclotetradecin-7-yl]-3,7-dihydro-4H-pyrrolo[2,3-d] pyrimidin-4-one]
- EC50 (full-length HAQ STING): 91 nM
- % Effect at 30 μM relative to 2′3′-cGAMP [1]: 131%

Structure (SMILES): Nc1nc2c(ncn2[C@@H]2O[C@@H]3COP(=O)(O)O[C@H]4[C@@H](O)[C@H](n5cc(F)c6c(N)ncnc65)O[C@@H]4COP(=O)(O)O[C@@H]2[C@@H]3O)c(=O)[nH]1 [Example 33, 2-amino-9-[(5R,7R,8R,12aR,14R,15R,15aS,16R)-14-(4-amino-5-fluoro-7H-pyrrolo[2,3-d]pyrimidin-7-yl)-2,10,15,16-tetrahydroxy-2,10-dioxidooctahydro-12H-5,8-methanofuro[3,2-l][1,3,6,9,11,2,10]pentaoxadiphosphacyclotetradecin-7-yl]-1,9-dihydro-6H-purin-6-one]
- EC50 (full-length HAQ STING): 11.9 nM
- % Effect at 30 μM relative to 2′3′-cGAMP [1]: 200%

Structure (SMILES): Nc1nc2c(ncn2[C@@H]2O[C@@H]3COP(=O)(O)O[C@H]4[C@@H](O)[C@H](n5cnc6c(N)nc(F)nc65)O[C@@H]4COP(=O)(O)O[C@@H]2[C@@H]3O)c(=O)[nH]1 [Example 34, 2-amino-9-[(5R,7R,8R,12aR,14R,15R,15aS,16R)-14-(6-amino-2-fluoro-9H-purin-9-yl)-2,10,15,16-tetrahydroxy-2,10-dioxidooctahydro-12H-5,8-methanofuro[3,2-l][1,3,6,9,11,2,10]pentaoxadiphosphacyclotetradecin-7-yl]-1,9-dihydro-6H-purin-6-one]
- EC50 (full-length HAQ STING): 24.6 nM
- % Effect at 30 μM relative to 2′3′-cGAMP [1]: 125%

Structure (SMILES): Nc1ncnc2c1ccn2[C@@H]1O[C@@H]2COP(=O)(O)O[C@@H]3[C@H](O)[C@@H](COP(=O)(O)O[C@H]2[C@H]1O)O[C@H]3n1cnc2c(=O)[nH]cnc21 [Example 35, 9-[(5R,7R,8R,12aR,14R,15R,15aS,16R)-14-(4-amino-7H-pyrrolo[2,3-d]pyrimidin-7-yl)-2,10,15,16-tetrahydroxy-2,10-dioxidooctahydro-12H-5,8-methanofuro[3,2-l][1,3,6,9,11,2,10]pentaoxadiphosphacyclotetradecin-7-yl]-1,9-dihydro-6H-purin-6-one]
- EC50 (full-length HAQ STING): 7.9 nM
- % Effect at 30 μM relative to 2′3′-cGAMP [1]: 51%

Structure (SMILES): Nc1nc2c(ccn2[C@@H]2O[C@@H]3COP(=O)(O)O[C@H]4[C@@H](O)[C@H](n5ccc6c(N)ncnc65)O[C@@H]4COP(=O)(O)O[C@@H]2[C@@H]3O)c(=O)[nH]1 [Example 37, 2-amino-7-[(5R,7R,8R,12aR,14R,15R,15aS,16R)-14-(4-amino-7H-pyrrolo[2,3-d]pyrimidin-7-yl)-2,10,15,16-tetrahydroxy-2,10-dioxidooctahydro-12H-5,8-methanofuro[3,2-l][1,3,6,9,11,2,10]pentaoxadiphosphacyclotetradecin-7-yl]-3,7-dihydro-4H-pyrrolo[2,3-d]pyrimidin-4-one]
- EC50 (full-length HAQ STING): 620 nM
- % Effect at 30 μM relative to 2′3′-cGAMP [1]: 57%

Structure (SMILES): Nc1nc2c(ncn2[C@@H]2O[C@@H]3COP(=O)(O)O[C@H]4[C@@H](O)[C@H](c5cnc6c(N)ncnn56)O[C@@H]4COP(=O)(O)O[C@@H]2[C@@H]3O)c(=O)[nH]1 [Example 40, 2-amino-9-[(5R,7R,8R,12aR,14S,15S,15aS,16R)-14-(4-aminoimidazo[2,1-f][1,2,4]triazin-7-yl)-2,10,15,16-tetrahydroxy-2,10-dioxidooctahydro-12H-5,8-methanofuro[3,2-l][1,3,6,9,11,2,10]pentaoxadiphosphacyclotetradecin-7-yl]-1,9-dihydro-6H-purin-6-one]
- EC50 (full-length HAQ STING): 3.2 nM
- % Effect at 30 μM relative to 2′3′-cGAMP [1]: 77%

Now from value to molecule, other results behind:

- EC50 (full-length HAQ STING): 12.4 nM
Structure (SMILES): C[C@H]1OP(=O)(O)O[C@@H]2C[C@@H](COP(=O)(O)O[C@H]3[C@@H](O)[C@H](n4cnc5c(N)ncnc54)O[C@@H]31)O[C@H]2n1cnc2c(=O)[nH]c(N)nc21 [Example 16, 2-amino-9-[(5S,7R,8R,12R,12aR,14R,15R,15aS)-14-(6-amino-9H-purin-9-yl)-2,10,15-trihydroxy-12-methyl-2,10-dioxidooctahydro-12H-5,8-methanofuro[3,2-l][1,3,6,9,11,2,10]pentaoxadiphosphacyclotetradecin-7-yl]-1,9-dihydro-6H-purin-6-one]
- % Effect at 30 μM relative to 2′3′-cGAMP [1]: 57%

- EC50 (full-length HAQ STING): 121 nM
Structure (SMILES): Nc1nc2c(ncn2[C@@H]2O[C@@]34COC3[C@@H]2OP(=O)(O)OC[C@H]2O[C@@H](n3cnc5c(N)ncnc53)[C@@H](O)C2OP(=O)(O)OC4)c(=O)[nH]1 (stereo partly drawn) [Example 17, 2-amino-9-[(2aR,5S,6aS,7R,8R,9aR,12S,14R,14aS,15R)-8-(6-amino-9H-purin-9-yl)-5,7,12-trihydroxy-5,12-dioxidohexahydro-6aH-2a,14-(epoxymethano)furo[3,2-d]oxeto[2,3-k][1,3,7,9,2,8]tetraoxadiphosphacyclotridecin-15(2H,3H)-yl]-1,9-dihydro-6H-purin-6-one]
- % Effect at 30 μM relative to 2′3′-cGAMP [1]: 81%

- EC50 (full-length HAQ STING): 53.9 nM
Structure (SMILES): C[C@@H]1OP(=O)(O)O[C@@H]2C[C@@H](COP(=O)(O)O[C@H]3[C@@H](O)[C@H](n4cnc5c(N)ncnc54)O[C@H]31)O[C@H]2n1cnc2c(=O)[nH]c(N)nc21 [Example 18, 2-amino-9-[(5S,7R,8R,12S,12aS,14R,15R,15aS)-14-(6-amino-9H-purin-9-yl)-2,10,15-trihydroxy-12-methyl-2,10-dioxidooctahydro-12H-5,8-methanofuro[3,2-l][1,3,6,9,11,2,10]pentaoxadiphosphacyclotetradecin-7-yl]-1,9-dihydro-6H-purin-6-one]
- % Effect at 30 μM relative to 2′3′-cGAMP [1]: 74%

- EC50 (full-length HAQ STING): 94 nM
Structure (SMILES): CNc1ncnc2c1ncn2[C@@H]1O[C@@H]2COP(=O)(O)O[C@@H]3[C@H](O)[C@@H](COP(=O)(O)O[C@H]2[C@H]1O)O[C@H]3n1cnc2c(=O)[nH]c(N)nc21 [Example 31, 2-amino-9-{(5R,7R,8R,12aR,14R,15R,15aS,16R)-2,10,15,16-tetrahydroxy-14-[6-(methylamino)-9H-purin-9-yl]-2,10-dioxidooctahydro-12H-5,8-methanofuro [3,2-l][1,3,6,9,11,2,10]pentaoxadiphosphacyclotetradecin-7-yl}-1,9-dihydro-6H-purin-6-one]
- % Effect at 30 μM relative to 2′3′-cGAMP [1]: 100%

- EC50 (full-length HAQ STING): 21.5 nM
Structure (SMILES): NC[C@H]1[C@H]2OP(=O)(O)OC[C@H]3O[C@@H](n4cnc5c(N)ncnc54)[C@H](O)[C@@H]3OP(=O)(O)OC[C@H]1O[C@H]2n1cnc2c(=O)[nH]c(N)nc21 [Example 36, 2-amino-9-[(5S,7R,8R,12aR,14R,15R,15aS,16R)-16-(aminomethyl)-14-(6-amino-9H-purin-9-yl)-2,10,15-trihydroxy-2,10-dioxidooctahydro-12H-5,8-methanofuro[3,2-l][1,3,6,9,11,2,10]pentaoxadiphosphacyclotetradecin-7-yl]-1,9-dihydro-6H-purin-6-one]
- % Effect at 30 μM relative to 2′3′-cGAMP [1]: 120%
